Reference: paper PMC12118597 (Science Advances, 2025)
Where “and” joins values, the source holds several entries; their conditions need not be identical. Equal entries are not always repeated. Where two headings read alike, the source gives them in different places.

Legend:
[1] = target: T1, SARS-CoV-2 NSP3 macrodomain (Mac1) (Severe acute respiratory syndrome coronavirus 2, UniProt P0DTD1); assay type: binding; conditions: for Number of isomers bound: ligand modeling, Mac1 crystal soak
[2] = target: T1, SARS-CoV-2 NSP3 macrodomain (Mac1); experiment: biochemical; assay type: binding
[3] = stereoisomer(s) modeled as bound, residues 201/202/203
[4] = SARS CoV-2 macrodomain HTRF assay, single dose concentration 200 μM, read-out: Average % competition
[5] = compound at 200 μM, mean of three to four technical replicates, read-out: % competition at 200 μM (preliminary HTRF screen)
[6] = stereoisomer(s)/conformations of the soaked ligand modeled in the Mac1 crystal structure
[7] = SARS CoV-2 macrodomain HTRF assay
[8] = SARS CoV-2 macrodomain HTRF assay, dose-response, read-out: IC50
[9] = Single dose, concentration 200 μM
[10] = single dose concentration 200 μM (TS-FrankenROCS series)
[11] = crystal soak 10 mM, DMSO background map
[12] = HTRF binding curve, SARS-CoV-2 Mac1
[13] = read-out: IC50 (confirmatory HTRF dose-response screen)

SMILES	Number of isomers bound [1]	inhibition at 200 µM [2, 5] [%]	Ki [2, 7] [µM]	Ligand efficiency (binding enery per heavy atom) [2, 7]	PanDDA run, TFA/DMSO background map: 1-BDC ([1]; crystal soak 10 mM)	PanDDA run, TFA/DMSO background map: Hit ([1]; crystal soak 10 mM)	further results
OCC1COCCN1c1ncnc2[nH]ccc12 (centres unmarked) [AVI-3717]	2	62					Isomers modeled [1, 3]: R,S; inhibition at 200 µM [2, 4]: 62%
CC1CCC(O)(CNc2ncnc3[nH]ccc23)CC1 (centres unmarked) [AVI-4312]			20	0.34			Isomers modeled [1, 6]: rr; IC50 [2, 8]: 21 µM
OC1CCC(O)(CNc2ncnc3[nH]ccc23)CC1 (centres unmarked) [AVI-6220]			240	0.26			Isomers modeled [1, 6]: rr,rr; IC50 [2, 8]: 260 µM
CCC(Nc1ncnc2[nH]ccc12)C(C)O (centres unmarked) [AVI-3635]	1	54			0.11 and 0.08	TRUE	Average % competition [2, 9]: 54%
OCC(COCc1ccccc1)Nc1ncnc2[nH]ccc12 (centres unmarked) [AVI-3709]	2	29			0.16	TRUE	Isomers modeled [1, 3]: S,R; Average % competition [2, 9]: 29%
Cc1c[nH]c2ncnc(NCC3(O)CCC(C)CC3)c12 (centres unmarked) [AVI-4331]				0.26			Isomers modeled [1, 6]: rr; IC50 [2, 8]: 210 µM
Cc1cc2c(=O)n(CCN3C(=O)c4ccccc4S3(=O)=O)nnc2s1 [AVI-341]	1	11					Average % competition [2, 10]: 11%
OCC(CN1CCCCC1)Nc1ncnc2[nH]ccc12 (centres unmarked) [AVI-3677]	1	< 10			0.18	TRUE	Average % competition [2, 9]: <10%
CC(C)(O)[C@@H]1CCCN1c1ncnc2[nH]ccc12 [AVI-1445, (S)-2-(1-(7H-pyrrolo[2,3-d]pyrimidin-4-yl)pyrrolidin-2-yl)propan-2-ol]	1	75	100	0.31	0.12	TRUE	Occupancy difference (refined_occupancy - 2*(1-BDC)) [1]: 0; 1-BDC ([1]; PanDDA background density correction factor): 0.12; PanDDA run, overall: Hit ([1]; crystal soak 10 mM, P43 crystal form): TRUE; PanDDA run, DMSO background map: 1-BDC [1, 11]: 0.12; PanDDA run, DMSO background map: Hit [1, 11]: TRUE; Total number of conformations ([1]; ligand conformations modeled in the crystal structure): 1; X-ray crystal structure ([1]; ligand-bound crystal structure obtained (TRUE)): TRUE; 2*(1-BDC) (%) ([1]; occupancy estimate from PanDDA): 24%; Refined ligand occupancy (%) ([1]; refined crystallographic occupancy): 24%; Binding site ([1]; site occupied in X-ray crystal structure): Adenosine; Hill slope [2, 12]: 1.1; Hill slope ([2]; SARS CoV-2 macrodomain HTRF assay, dose-response): 1.6; inhibition at 200 µM [2, 4]: 75%; IC50 [2, 13]: 110 µM
O=C(O)C(F)(F)F.OC1([C@H]2CCCN2c2ncnc3[nH]ccc23)Cc2ccccc2C1 [AVI-3731]	1		3.4	0.31	0.14	TRUE	IC50 [2, 13]: 3.7 µM
COC1CCCN(S(=O)(=O)c2cc(Cl)cnc2N)C1 (centres unmarked) [AVI-290]							binding by crystal soaking ([1]; P43 crystal form, repeated attempts, result in words): failed to observe binding
CCC(Nc1ncnc2[nH]ccc12)C(C)(C)O (centres unmarked) [AVI-3667]	1	51			0.07	TRUE	Average % competition [2, 9]: 51%
Nc1ncnc2c1ncn2[C@@H]1O[C@H](COP(=O)(O)OP(=O)(O)OC[C@H]2O[C@@H](O)[C@H](O)[C@@H]2O)[C@@H](O)[C@H]1O.[Na].[Na] [ADP-ribose, reference compound]							X-ray crystal structure ([1]; TRUE = crystal structure with ligand obtained): TRUE; Hill slope [2, 12]: 1.1
CCCC(CO)Nc1ncnc2[nH]ccc12 (centres unmarked) [AVI-3643]	1	63			0.14	TRUE	inhibition at 200 µM ([2]; Single dose, concentration 200 μM, read-out: Average % competition): 63%
OC[C@@H]1C[C@H](O)CN1c1ncnc2[nH]ccc12 [AVI-610]	1		150	0.31			IC50 [2, 8]: 160 µM
C#CCC(CO)Nc1ncnc2[nH]ccc12 (centres unmarked) [AVI-3644]	1	43			0.11	TRUE	Average % competition [2, 9]: 43%
OCC1CC2(CCC2)CN1c1ncnc2[nH]ccc12 (centres unmarked) [AVI-3728]	1	79			0.26	TRUE	Isomers modeled [1, 3]: S,S; inhibition at 200 µM [2, 4]: 79%
CC1CCN(C(=O)c2ccc3c(c2)nc(CO)n3C)CC1C(=O)O (centres unmarked) [AVI-348]	1	< 10					Average % competition [2, 10]: <10%
OCC(Nc1ncnc2[nH]ccc12)C1CCOC1 (centres unmarked) [AVI-3679]	1	35			0.11	TRUE	Average % competition [2, 9]: 35%
Cc1sc2ncnc(Sc3ccccc3C(=O)O)c2c1C [AVI-317]	1						
OCC1CC2(CCCCC2)CN1c1ncnc2[nH]ccc12 (centres unmarked) [AVI-3727]	1	67			0.25	TRUE	inhibition at 200 µM [2, 4]: 67%
CC(C)(O)C1N(c2ncnc3[nH]ccc23)CCC1(C)C (centres unmarked) [AVI-4126]			93	0.28			Isomers modeled [1, 6]: R,S; IC50 [2, 8]: 100 µM
O[C@H]1CC[C@H]2CCN(c3ncnc4[nH]ccc34)[C@H]21 [AVI-5997]			34	0.34			Isomers modeled [1, 6]: SSR; IC50 [2, 8]: 37 µM
